Data taken from patent US20140371074A1, “METHOD TO INCREASE PLANT YIELD” (priority 2012, published 2014).

How the values were obtained:
Assay type in all cases: in vivo
[1] = system: soybean variety Asgrow 2933; test: Field: side dress with 2,4-D Low Vol 4 solution, Laurel, Iowa (Table 3); conditions: for Percent of control: yield vs untreated control
Description: Plants were grown from Roundup Ready variety Asgrow 2933 seed that was treated with accelron (Monsanto) prior to planting. Plants were side dressed by application with a 3-point cultivator modified to spray on the ground in front of the shanks, the shanks then mix the 2,4-D mixture with the soil and move the mixture closer to the plant roots. Plants were treated with between 1X and 4X of 2,4-D Low Vol 4 solution, where 1X is equivalent to approximately 0.19 pounds acid equivalent of 2,4-D. Plants were grown with a row width of 30 inches and row length of 562 feet.

[2] = system: soybean cultivars L2084R2, L2711R2X; test: Field 2012: 2,4-D Low Vol 4 + crop oil drizzled onto soil at R1 stage, Alexander, Iowa (Table 2a)
Description: Plants were treated by drizzling via low pressure spraying the 2,4-D solution onto the soil along each side of the rows when plants are at the R1 stage of growth. The date of planting was May 15, 2012 and the date of harvest was Oct. 2, 2012 at plots in Alexander, Iowa (Table 2a) and Laurel, Iowa (Table 2b). Plants were grown from Roundup Ready seed and were sprayed with glyphosate for weed control. Plants were treated with between 1X and 5.5X of 2,4-D solution mixed with crop oil at 15.3 ounces of 2,4-D Low Vol 4 plus 0.32 ounces crop oil per gallon, where 1X is equivalent to approximately 0.45 pounds acid equivalent of 2,4-D. Two repetitions were performed at different plots. […] The moisture percentages were used in correcting each yield to a 13% moisture basis.

[3] = system: soybean Latham 2767 Roundup Ready; test: Field: seed treatment with 2,4-D solution 1X-10X, Laurel, Iowa (Table 6); conditions: 1X~0.0002968 lb a.e.
Description: Previously untreated soybean seeds were treated with between 1X to 10X of 2,4-D solution, where 1X is equivalent to approximately 0.0002968 pounds acid equivalent of 2,4-D. The seed variety was Latham 2767 Roundup Ready seeds and seeds were planted in Laurel, Iowa with a row width of 30 inches. Plants were sprayed with foliar insecticide and fungicide.

[4] = 1X side dress (1X~0.19 lb a.e.)
[5] = 2X side dress (1X~0.19 lb a.e.)
[6] = 3X side dress (1X~0.19 lb a.e.)
[7] = 4X side dress (1X~0.19 lb a.e.)
[8] = 1.0X Rate, L2084R2, 1X~0.45 lb a.e.
[9] = 1.0X Rate, L2711R2X, 1X~0.45 lb a.e.
[10] = 1.5X Rate, L2084R2, 1X~0.45 lb a.e.
[11] = 1.5X Rate, L2711R2X, 1X~0.45 lb a.e.
[12] = 2.0X Rate, L2084R2, 1X~0.45 lb a.e.
[13] = 2.0X Rate, L2711R2X, 1X~0.45 lb a.e.
[14] = 2.5X Rate, L2084R2, 1X~0.45 lb a.e.
[15] = 2.5X Rate, L2711R2X, 1X~0.45 lb a.e.
[16] = 3.0X Rate, L2084R2, 1X~0.45 lb a.e.
[17] = 3.0X Rate, L2711R2X, 1X~0.45 lb a.e.
[18] = 3.5X Rate, L2084R2, 1X~0.45 lb a.e.
[19] = 3.5X Rate, L2711R2X, 1X~0.45 lb a.e.
[20] = 4.0X Rate, L2084R2, 1X~0.45 lb a.e.
[21] = 4.0X Rate, L2711R2X, 1X~0.45 lb a.e.
[22] = 4.5X Rate, L2084R2, 1X~0.45 lb a.e.
[23] = 4.5X Rate, L2711R2X, 1X~0.45 lb a.e.
[24] = 5.0X Rate, L2084R2, 1X~0.45 lb a.e.
[25] = 5.0X Rate, L2711R2X, 1X~0.45 lb a.e.
[26] = 5.5X Rate, L2084R2, 1X~0.45 lb a.e.
[27] = 5.5X Rate, L2711R2X, 1X~0.45 lb a.e.
[28] = Average over 1.0X-3.0X Rates, L2084R2
[29] = Average over 1.0X-3.0X Rates, L2711R2X
[30] = Average over 1.0X-5.5X Rates, L2084R2
[31] = Average over 1.0X-5.5X Rates, L2711R2X
[32] = Overall location average, all rates, both cultivars

O=C(O)COc1ccc(Cl)cc1Cl [2,4-D, 2,4-Dichlorophenoxyacetic acid]
Yield (Bushels/acre at 13% moisture) [1, 4]: 58.3 Bushels/acre
Harvested weight ([1]; 1X side dress (1X~0.19 lb a.e.), 12 rows): 1292 g
Percent of control [1, 4]: 110%
Yield (Bushels/acre at 13% moisture) [1, 5]: 68.3 Bushels/acre
Harvested weight ([1]; 2X side dress (1X~0.19 lb a.e.), 8 rows): 1016 g
Percent of control [1, 5]: 130%
Yield (Bushels/acre at 13% moisture) [1, 6]: 62.8 Bushels/acre
Harvested weight ([1]; 3X side dress (1X~0.19 lb a.e.), 16 rows): 1844 g
Percent of control [1, 6]: 120%
Yield (Bushels/acre at 13% moisture) [1, 7]: 70.8 Bushels/acre
Harvested weight ([1]; 4X side dress (1X~0.19 lb a.e.), 16 rows): 2088 g
Percent of control [1, 7]: 135%
plant yield (in words) ([1]; side dress treatment 1X-4X vs untreated): greatly increases plant yield
Average Yield [2, 8]: 47.77 Bu/A
Repetition 1 Weight [2, 8]: 4.3 Lbs
Repetition 1 Yield [2, 8]: 49.06 Bu/A
Repetition 2 Weight [2, 8]: 4.1 Lbs
Repetition 2 Yield [2, 8]: 46.48 Bu/A
Average Yield [2, 9]: 46.66 Bu/A
Repetition 1 Weight [2, 9]: 3.7 Lbs
Repetition 1 Yield [2, 9]: 42.30 Bu/A
Repetition 2 Weight [2, 9]: 4.5 Lbs
Repetition 2 Yield [2, 9]: 51.02 Bu/A
Average Yield [2, 10]: 47.65 Bu/A
Repetition 1 Weight [2, 10]: 3.4 Lbs
Repetition 1 Yield [2, 10]: 38.79 Bu/A
Repetition 2 Weight [2, 10]: 5 Lbs
Repetition 2 Yield [2, 10]: 56.51 Bu/A
Average Yield [2, 11]: 52.85 Bu/A
Repetition 1 Weight [2, 11]: 3.9 Lbs
Repetition 1 Yield [2, 11]: 44.54 Bu/A
Repetition 2 Weight [2, 11]: 5.4 Lbs
Repetition 2 Yield [2, 11]: 61.16 Bu/A
Average Yield [2, 12]: 51.64 Bu/A
Repetition 1 Weight [2, 12]: 4.5 Lbs
Repetition 1 Yield [2, 12]: 51.23 Bu/A
Repetition 2 Weight [2, 12]: 4.6 Lbs
Repetition 2 Yield [2, 12]: 52.04 Bu/A
Repetition 2 Weight [2, 13]: 4.1 Lbs
Repetition 2 Yield [2, 13]: 46.43 Bu/A
Average Yield ([2]; 2.0X Rate, L2711R2X, 1X~0.45 lb a.e., repetition 2 only): 46.43 Bu/A
Average Yield [2, 14]: 38.59 Bu/A
Repetition 1 Weight [2, 14]: 3.1 Lbs
Repetition 1 Yield [2, 14]: 35.37 Bu/A
Repetition 2 Weight [2, 14]: 3.7 Lbs
Repetition 2 Yield [2, 14]: 41.81 Bu/A
Average Yield [2, 15]: 39.75 Bu/A
Repetition 1 Weight [2, 15]: 3.1 Lbs
Repetition 1 Yield [2, 15]: 35.29 Bu/A
Repetition 2 Weight [2, 15]: 3.9 Lbs
Repetition 2 Yield [2, 15]: 44.21 Bu/A
Average Yield [2, 16]: 43.14 Bu/A
Repetition 1 Weight [2, 16]: 3.5 Lbs
Repetition 1 Yield [2, 16]: 39.89 Bu/A
Repetition 2 Weight [2, 16]: 4.1 Lbs
Repetition 2 Yield [2, 16]: 46.38 Bu/A
Average Yield [2, 17]: 45.36 Bu/A
Repetition 1 Weight [2, 17]: 3.7 Lbs
Repetition 1 Yield [2, 17]: 42.08 Bu/A
Repetition 2 Weight [2, 17]: 4.3 Lbs
Repetition 2 Yield [2, 17]: 48.65 Bu/A
Repetition 1 Weight [2, 18]: 3.4 Lbs
Repetition 1 Yield [2, 18]: 38.55 Bu/A
Average Yield ([2]; 3.5X Rate, L2084R2, 1X~0.45 lb a.e., repetition 1 only): 38.55 Bu/A
Repetition 1 Weight [2, 19]: 4.2 Lbs
Repetition 1 Yield [2, 19]: 47.77 Bu/A
Average Yield ([2]; 3.5X Rate, L2711R2X, 1X~0.45 lb a.e., repetition 1 only): 47.77 Bu/A
Repetition 1 Weight [2, 20]: 4.5 Lbs
Repetition 1 Yield [2, 20]: 51.07 Bu/A
Average Yield ([2]; 4.0X Rate, L2084R2, 1X~0.45 lb a.e., repetition 1 only): 51.07 Bu/A
Repetition 1 Weight [2, 21]: 5.4 Lbs
Repetition 1 Yield [2, 21]: 61.28 Bu/A
Average Yield ([2]; 4.0X Rate, L2711R2X, 1X~0.45 lb a.e., repetition 1 only): 61.28 Bu/A
Repetition 1 Weight [2, 22]: 4.7 Lbs
Repetition 1 Yield [2, 22]: 53.28 Bu/A
Average Yield ([2]; 4.5X Rate, L2084R2, 1X~0.45 lb a.e., repetition 1 only): 53.28 Bu/A
Repetition 1 Weight [2, 23]: 4.7 Lbs
Repetition 1 Yield [2, 23]: 53.40 Bu/A
Average Yield ([2]; 4.5X Rate, L2711R2X, 1X~0.45 lb a.e., repetition 1 only): 53.40 Bu/A
Repetition 1 Weight [2, 24]: 4.1 Lbs
Repetition 1 Yield [2, 24]: 46.58 Bu/A
Average Yield ([2]; 5.0X Rate, L2084R2, 1X~0.45 lb a.e., repetition 1 only): 46.58 Bu/A
Repetition 1 Weight [2, 25]: 4.3 Lbs
Repetition 1 Yield [2, 25]: 48.90 Bu/A
Average Yield ([2]; 5.0X Rate, L2711R2X, 1X~0.45 lb a.e., repetition 1 only): 48.90 Bu/A
Repetition 1 Weight [2, 26]: 4.2 Lbs
Repetition 1 Yield [2, 26]: 47.67 Bu/A
Average Yield ([2]; 5.5X Rate, L2084R2, 1X~0.45 lb a.e., repetition 1 only): 47.67 Bu/A
Repetition 1 Weight [2, 27]: 4.1 Lbs
Repetition 1 Yield [2, 27]: 46.48 Bu/A
Average Yield ([2]; 5.5X Rate, L2711R2X, 1X~0.45 lb a.e., repetition 1 only): 46.48 Bu/A
Repetition 2 Weight [2, 28]: 4.3 Lbs
Repetition 2 Yield [2, 28]: 48.65 Bu/A
Repetition 2 Weight [2, 29]: 4.4 Lbs
Repetition 2 Yield [2, 29]: 50.29 Bu/A
Average Yield [2, 30]: 46.59 Bu/A
Repetition 1 Weight [2, 30]: 4.0 Lbs
Repetition 1 Yield [2, 30]: 45.15 Bu/A
Average Yield [2, 31]: 48.89 Bu/A
Repetition 1 Weight [2, 31]: 4.1 Lbs
Repetition 1 Yield [2, 31]: 46.89 Bu/A
Average Yield [2, 32]: 47.74 Bu/A
Repetition 1 Weight [2, 32]: 4.0 Lbs
Repetition 1 Yield [2, 32]: 45.97 Bu/A
Repetition 2 Weight [2, 32]: 4.4 Lbs
Repetition 2 Yield [2, 32]: 49.47 Bu/A
plant yield (in words) ([2]; Table 2a, 2,4-D mixture 1.0X-5.5X vs untreated): increases plant yield
Harvested weight ([3]; 1X seed treatment): 125 g
Yield (Bushels/acre at 13% moisture) ([3]; 1X seed treatment): 60.71 Bushels/acre
Harvested weight ([3]; 2X seed treatment): 90 g
Yield (Bushels/acre at 13% moisture) ([3]; 2X seed treatment): 42.26 Bushels/acre
Harvested weight ([3]; 3X seed treatment): 100 g
Yield (Bushels/acre at 13% moisture) ([3]; 3X seed treatment): 45.23 Bushels/acre
Harvested weight ([3]; 4X seed treatment): 100 g
Yield (Bushels/acre at 13% moisture) ([3]; 4X seed treatment): 44.23 Bushels/acre
Harvested weight ([3]; 5X seed treatment): 105 g
Yield (Bushels/acre at 13% moisture) ([3]; 5X seed treatment): 45.33 Bushels/acre
Harvested weight ([3]; 6X seed treatment): 110 g
Yield (Bushels/acre at 13% moisture) ([3]; 6X seed treatment): 48.22 Bushels/acre
Harvested weight ([3]; 7X seed treatment): 105 g
Yield (Bushels/acre at 13% moisture) ([3]; 7X seed treatment): 44.36 Bushels/acre
Harvested weight ([3]; 8X seed treatment): 110 g
Yield (Bushels/acre at 13% moisture) ([3]; 8X seed treatment): 46.32 Bushels/acre
Harvested weight ([3]; 9X seed treatment): 100 g
Yield (Bushels/acre at 13% moisture) ([3]; 9X seed treatment): 43.06 Bushels/acre
Harvested weight ([3]; 10X seed treatment): 95 g
Yield (Bushels/acre at 13% moisture) ([3]; 10X seed treatment): 42.12 Bushels/acre
